In patent US20020055130A1, “Method and product for regulating apoptosis” (National Jewish Center for Immunology and Respiratory …, priority 1997, published 2002):

Tests used:
[1] = tested on: JNK; experiment: JNK assay (solid state kinase assay with GST-Jun), L929 cells; type: cell-based, murine; settings: for effect on JNK activity: bFGF 2.5 ng/ml, PD #098059 pretreatment; for effect on TNFα stimulation of JNK: co-stimulation or IPTG-induced Ras expression
Procedure: JNK assay. JNK activity was measured using a solid state kinase assay in which glutathione S-transferase-c-Jun(1-79) (GST-JUN) cound to glutathione-Sepharose 4B beads was used to affinity pruify JNK and then JNK activity was measured in an in vitro kinase assay using the sepharose bound GST-Jun as a substrate (Hibi, M., et al. (1993) Genes & Development 7:2135-2148). Stimulated or unstimulated cells were lysed in 0.5% Nonidet P-40, 20 mM HEPES pH 7.2, 100 mM NaCl, 2 mM dithiothreitol, lmM EDTA, 1.0 mM phenylmethylsulfonylfluoride, 1 μg/ml aprotinin and the nuclei pelleted. Lysates were normalized for protein content. […] Binding to GST-Jun efficiently isolates the two major forms of JNK (p45and p55) and under the conditions used JNK isolation was linear for 10-250 μg of cell lysate. The lysates were rotated at 4° C. for 1-3 h. Beads were washed twice in lysis buffer and then twice in PAN (10 mM PIPES, pH 7.0, 100 mM NaCl, 21 μg/ml aprotinin). Kinase reactions were carried out at 30° C. for 15 min in 20 mM Hepes pH 7.2, 20 mM β-glycerophosphate, 10 mMp-nitrophenyl phosphate, 10 mM MgCl2, 1 mM dithiothreitol, 50 μm sodium vanadate, 10 μCi γ^32P-ATP 4300 Ci/mmole. The kinase reaction was linear from 0-30 min.

[2] = tested on: p42/p44 MAPK; experiment: MAPK assay (EGFR662-681 peptide), L929 cells; type: cell-based, murine
Procedure: MAPK Assay MAPK activity was measured exactly as described previously (Gardner, A. M., et al. (1994) Meth. Enzymol. 238:258-270) with the exception that MonoQ FPLC fractionation was replaced by step elution from a DEAE-Sephacel column using 0.5 M NaCl in loading buffer. The eluate was assayed in triplicate using the epidermal growth factor receptor 662-681 peptide (EGFR662-681) as a selective substrate for MAPK activity (Heasley, L. E., et al. (1994) American Journal of Physiology (Renal Fluid Electrolyte Physiol. 36) 267:F366-F373).

[3] = tested on: L929 cells; experiment: TNFα-mediated apoptosis of L929 cells (neutral red assay, propidium iodide staining); type: cell-based, murine; settings: for effect on TNFα-mediated cell death / apoptosis / effect on the protective action of bFGF against TNFα-mediated cell death: L929 cells
Procedure: Cell lines and culture. L929 cells (ATCC CCL1 were maintained in Dulbecco's modified Eagle's medium with 5% newborn claf serum and 5% bovine calf serum (BCS) supplemented with 100 ug/ml streptomycin and 100U/ml penicillin. The cells were grown in 10 cm dishes at 37° C. in 7.5% CO2. Cells were made quiescent where indicated by incubation in Dulbecco's modified Eagle's medium and 0.1% bovine serum albumin for 24 h. Recombinant murine TNFα and recombinant humanbFGF (147aa) were from R&D Systems, Minneapolis, Minn. Cells were pretreated where indicated with the MEK-1 inhibitor PD#098059 (Parke-Davis Pharmaceutical Corp. Ann Arbor, Mich.) for 1 h at 37° C. Cells were stimulated by incubation with the indicated cytokine or growth factor for various times at 37° C. […] Stimulation was stopped by rinsing the plates twice with ice cold phosphate buffered saline (PBS) and lysing the cells in the appropriate lysis buffer. Cells were scraped from the plates and nuclei were pelleted for 10 min at 14,000 RPM in a microcentrifuge.
Neutral Red Assay Uptake of the dye neutral red was used as one measure of cell viability following cytokine or growth factor treatment (Finter, N. B. (1969) J. Gen Virol. 5:419-427). 1.5×10^4-2.5×10^5 L929 cells/well were plated in 12 well tissue culture dishes in 1.25 ml of media. Cells were treated for 15-20 hr with various concentrations of TNFα and/or bFGF. 2.5 μl of 1% neutral red was added to the wells and incubated for 2 hr at 37° C. PBS. The neutral red was extracted with 1.0 ml of 50% ethanol, 50 mM Na-citrate pH 4.2 and absorbency was measured at […].
Propidium iodide staining Cells were plated on glass chamber slides (Nunc, Naperville, Ill.) at a concentration of 0.2-0.6×10^5 cells/ml. Ras expression was induced with 5 mM IPTG in Dulbecco's modified Eagle's medium with 0.1% BCS for 8-12 hr. Cells were exposed to TNFα (5 ng/ml) and/or bFGF (500 pg/ml) in Dulbecco's modified Eagle's medium with 0.1% BCS for 16 hr. The parental LACI expressing cell line (see below) was used as a control. Cells were washed twice in PBS, fixed in acetone:methanol (1:1) −20° C. for 5 min, air dried, washed twice in PBS, stained with 1 μg/ml propidium iodide (PI) in PBS for 20 min, washed in PBS, washed in H2O and mounted in 25% glycerol/PBS. PI fluorescence was observed using a Nikon inverted microscope equipped with epifluorescence and a […] filter. Images were analyzed using IP lab.

[4] = tested on: endogenous MEKK1 protein; experiment: Cleavage of endogenous MEKK1 after genotoxic stress stimuli (immunoblot); type: cell-based, Human; settings: HEK293 cells
Procedure: 200-400 μg cell lysate protein was subjected to SDS-9% PAGE and transferred to nitrocellulose membranes. Blots were performed exactly as described (Widmann et al., 1995). To detect HA-tagged proteins, the mouse monoclonal antibody 12CA5 (Babco) was used as the primary antibody, followed by a rabbit anti-mouse antibody (Cappel). HRP-conjugated protein A at a 1/5000 dilution (Zymed) and ^125I-protein A at a 1/500 dilution (Dupont NEN) were then used for enhanced chemiluminescence (ECL) detection and for quantification using the phosphorimager. To detect MEKK1, 3 different ploclonal antisera were used as primary antibodies, followed by ECL detection using HRP-protein A (see above). These sera were generated by injecting rabbits with GST proteins fused with different portions of the MEKK1 protein.
Several genotoxic stress stimuli were applied to HEK293 cells and their effect on the MEKK1 protein was assessed.

[5] = tested on: MEKK1; experiment: MEKK1 immunoprecipitate in vitro kinase assay (MEK-1 phosphorylation), growth factor treated PC12 cells; type: cell-based; settings: for MEKK1 activity: serum starved PC12 cells, EGF 30 ng/ml or NGF 100 ng/ml, 5 minutes
[6] = tested on: c-Raf-1; experiment: Raf-1 immunoprecipitate in vitro kinase assay, growth factor treated PC12 cells; type: cell-based; settings: in comparison to MEKK1 or Raf-B
Procedure: (§1) Reactions were stopped by the addition of 2× SDS sample buffer (20 μl). The samples were boiled for 3 minutes and subjected to SDS-PAGE and autoradiography. Raf-B was immunoprecipitated from the same untreated and treated PC 12 cell lysates as above with an antiserum to a COOH-terminal peptide of Raf-B (Santa Cruz Biotechnology, Inc.) and assayed similarly. Raf-1 was immunoprecipitated with an antiserum to the 12 COOH-terminal amino acids of Raf-1 (Santa Cruz Biotechnology, Inc.).

[7] = tested on: Raf-B; experiment: Raf-B immunoprecipitate in vitro kinase assay, EGF treated PC12 cells; type: cell-based; settings: EGF 30 ng/ml timecourse
Procedure: as §1

[8] = tested on: C-Raf; experiment: Raf activation assay (kinase-inactive MEK-1 phosphorylation), L929 cells; type: cell-based, murine
Procedure: (§2) RafActivation Assay Cells were serum starved and challenged in the presence or absence of the appropriate cytokine or growth factors, as described above. Cells were lysed by scraping in ice cold RIPA buffer (50 mM Tris-HCl, pH 7.2, 150 mM NaCl, 0.1% SDS, 0.5% sodium deoxycholate, 1.0% Triton X-100, 10 mM sodium pyrophosphate, 25 mM β-glycerophosphate, 2 mM sodium vanadate, 2.1 µg/ml aprotinin) and the nuclei were pelletted. The supernatants were normalized for protein content and precleared with protein A Sepharose prior to immunoprecipitation with rabbit antiserum to the C terminus of C-Raf, rabbit anti-serum to A-Raf or rabbit antiserum to B-Raf (Santa Cruz Biotech., Santa Cruz, Calif.) and protein A Sepharose for 2-3 hr at 4° C. The beads were washed twice with ice cold RIPA and twice with PAN. A third of the immunoprecipitate was diluted with SDS sample buffer and used for immunoblot analysis. […] Wild-type recombinant MEK-1 was autophosphorylated in parallel as a marker. Reactions were terminated by the addition of 12.5 μl 5× SDS sample buffer, boiled, and subjected to SDS-PAGE and autoradiography.

[9] = tested on: B-Raf; experiment: as above; type: cell-based, murine
Procedure: as §2

[10] = tested on: Swiss 3T3 cells and REF52 cells; experiment: Beauvericin-induced apoptosis (anti-tubulin and propidium iodide staining); type: cell-based; settings: 50 μM, 6 hours, 37° C.
Procedure: A first group of transfected Swiss 3T3 cells and REF52 cells were treated with 50 μM beauvericin for 6 hours at 37° C. Beauvericin is a compound known to induce apoptosis in mammalian cells. A second group of cells were treated with a control buffer lacking beauvericin. The treated cells were then fixed in parafornaldehyde and permeabilized with saponin using protocols standard in the art. The permeabilized cells were then labelled by incubating the cells with a fluorescein-labelled anti-tubulin antibody (1:500; obtained from GIBCO, Gaithersburg, Md.) to detect cytoplasmic shrinkage or 10 μM propidium iodide (obtained from Sigma, St. Louis, Mo.) to stain DNA to detect nuclear condensation. The labelled cells were then viewed by differential fluorescent imaging using a Nikon Diaphot fluorescent microscope.

[11] = tested on: Swiss 3T3 cells; experiment: Quantitation of MEKKCOOH-induced cell death after nuclear microinjection; type: cell-based
Procedure: Swiss 3T3 and REF52 cells were plated on acid-washed glass cover slips in Dulbecco's Modified Eagle's Medium (DMEM) and 10% bovine calf serum (BCS) or newborn calf serum (NCS). Cells were placed in DMEM/0.1% calf serum for overnight incubation prior to microinjection and used for injection at 50-70% confluence. Injections were performed with an Eppendorf automated microinjection system with needles pulled from glass capillaries on a vertical pipette puller (Kopf, Tujunga, Calif.). Cells were injected with pCMVβ-gal in the presence or absence of pCMV5MEKKCOOH or pCMV5BxBRaf at 20-100 ng/μl for each expression plasmid in 100 mM KC1, 5 mM NaPO4, pH 7.3. […] Similar results were obtained when cells were placed in 10% NCS after microinjection. Propidium iodide (5 pg/ml) was used to stain DNA. X-Gal reactions were performed for six hr.
Seventeen hours after injection cells were fixed and stained for β-galactosidase activity with X-Gal. Injected cells attached to the coverslip were scored as positive for cell death when they were highly condensed, small round cells.

Molecule: COc1cccc(-c2cc(=O)c3ccccc3o2)c1N [PD #098059, reference compound]
- effect on JNK activity [1]: did not inhibit JNK kinase or the activation of JNK
- effect on bFGF stimulation of MAPK activity ([2]; L929 cells): inhibited bFGF stimulation of MAPK activity
- effect on TNFα-mediated cell death / apoptosis [3]: no effect on TNFα-mediated apoptosis
- effect on the protective action of bFGF against TNFα-mediated cell death [3]: inhibited the protective action of bFGF

Molecule: N.N.[Cl][Pt][Cl] [cisplatin]
- effect on full length MEKK1 protein [4]: induced the loss of full length MEKK1
- full length MEKK1 remaining after treatment [4]: no full length MEKK1 protein remaining

Molecule: EGF: epidermal growth factor
- persistence of MEKK1 activation ([5]; EGF 30 ng/ml timecourse): at least 30 minutes
- MEKK1 activity [5]: increased MEKK1 activity
- activation of c-Raf-1 [6]: almost negligible
- time to peak Raf-B activity [7]: 3 to 5 min

Molecule: N17 Ras: HA-tagged inhibitory N17 Ras, IPTG-inducible in L929 cells [reference compound]
- effect on TNFα stimulation of JNK [1]: no effect on TNF stimulation of JNK
- effect on bFGF stimulation of MAPK activity ([2]; L929 cells): significantly blunted bFGF stimulation of MAPK
- effect on TNFα-mediated cell death / apoptosis [3]: did not affect TNFα induced apoptosis
- effect on the protective action of bFGF against TNFα-mediated cell death [3]: markedly inhibit the ability of bFGF to protect cells

Molecule: NGF: growth factor used at 100 ng/ml on PC12 cells
- MEKK1 activity [5]: slight increase in MEKK1 activity
- activation of c-Raf-1 [6]: almost negligible

Molecule: bFGF: recombinant human basic fibroblast growth factor (147aa)
- effect on JNK activity [1]: little or no effect on JNK activity
- effect on TNFα stimulation of JNK [1]: did not alter the magnitude of JNK activation
- concentrations giving maximal stimulation of MAPK activity [2]: 0.25 to 0.5 ng/mL
- MAPK activity ([2]; L929 cells, TNFα 1 ng/ml where stated): robust activation of MAPK
- effect on TNFα-mediated cell death / apoptosis [3]: effective at blocking TNFα-mediated cell death
- cell number ([3]; in the absence of TNFα): did not measurably increase cell number
- C-Raf activation [8]: activation of both B-Raf and C-Raf
- B-Raf activation [9]: activation of both B-Raf and C-Raf

Molecule: beauvericin
- apoptotic morphology [10]: cytoplasmic shrinkage (monitored by the anti-tubulin antibodies) and nuclear condensation

Molecule: β-gal: expression plasmid encoding β-galactosidase, injected alone as control
- injected cells with an altered morphology ([11]; 48-72 hours post-injection): < 1%
- Condensed Cells (number) ([11]; Swiss 3T3 cells, 100 ng/μl plasmids, seventeen hours after injection, highly condensed, small round cells): 4
- Condensed Cells (%) ([11]; Swiss 3T3 cells, 100 ng/μl plasmids, seventeen hours after injection, percent of cells injected): 1%
